According to patent US12195410B2, “Nitrapyrin compositions for enhancing nitrogen nutrient use efficiency and improving plant growth” (Verdesian Life Sciences U.S., LLC, priority 2018, dated 2025):

Experiments:
[1] = Nitrapyrin volatilization, weight loss on heated balance at 100° C.; type: physicochemical; details: for weight as a percent of original weight: heated balance 100° C.
Experimental: Three materials were placed on a heated balance at 100° C. and had their weights observed every minute for 10 minutes, as a percent of original weight. The materials were: • 1. pure nitrapyrin, • 2. 25% w/w solution of nitrapyrin in sulfolane, and • 3. solution of 25% nitrapyrin salt with equimolar (on acid basis) amount of maleic-itaconic copolymer, also in sulfolane (nitrapyrin/polyanionic polymer salt).
Therefore, the disclosed nitrapyrin salts substantially reduce the volatilization of nitrapyrin.

[2] = Formation of solutions of nitrapyrin salts at 20% w/w nitrapyrin and grading of solutions; type: physicochemical; design: key: 5: Fully dissolved; 4: Mostly dissolved; 3: Mostly not dissolved; 2: Not dissolved; 1: Additional precipitate
Excerpt: Example 2. Formation of Solutions of Nitrapyrin Salts and Grading of Solutions

[3] = solvent Rhodiasolv Polarclean (L)
[4] = solvent propylene carbonate (F)
[5] = solvent tripropylene glycol (E)

| SMILES | grading of solution ([2]; solvent Agnique AMD3L (I)) | grading of solution ([2]; solvent Agnique AMD810 (H)) | grading of solution ([2]; solvent PT250 (C)) | grading of solution ([2]; solvent PT700 (B)) | grading of solution ([2]; solvent Rhodiasolv ADMA10 (J)) | grading of solution ([2]; solvent Rhodiasolv ADMA810 (K)) | grading of solution [2, 3] | grading of solution ([2]; solvent dipropylene glycol (A)) | grading of solution [2, 4] | grading of solution ([2]; solvent triacetin (G)) | grading of solution ([2]; solvent triethylene glycol (D)) | grading of solution [2, 5] | further results |
| --- | --- | --- | --- | --- | --- | --- | --- | --- | --- | --- | --- | --- | --- |
| Clc1cccc(C(Cl)(Cl)Cl)n1 [nitrapyrin without solvent, Nitrapyrin] |  |  |  |  |  |  |  |  |  |  |  |  | weight as a percent of original weight ([1]; experiment time 0 min): 100.00%; weight as a percent of original weight ([1]; experiment time 1 min): 99.20%; weight as a percent of original weight ([1]; experiment time 2 min): 98.56%; weight as a percent of original weight ([1]; experiment time 3 min): 97.92%; weight as a percent of original weight ([1]; experiment time 4 min): 96.00%; weight as a percent of original weight ([1]; experiment time 5 min): 94.87%; weight as a percent of original weight ([1]; experiment time 6 min): 93.75%; weight as a percent of original weight ([1]; experiment time 7 min): 92.63%; weight as a percent of original weight ([1]; experiment time 8 min): 90.87%; weight as a percent of original weight ([1]; experiment time 9 min): 89.90%; weight as a percent of original weight ([1]; experiment time 10 min): 89.10%; nitrapyrin sulfolane volatility ratio, Delta 3-10 ([1]; nitrapyrin without solvent vs. solvent alone, 100° C., 3 to 10 min): 401%; nitrapyrin sulfolane volatility ratio, Delta 4-10 ([1]; nitrapyrin without solvent vs. solvent alone, 100° C., 4 to 10 min): 392%; nitrapyrin sulfolane volatility ratio, Delta 5-10 ([1]; nitrapyrin without solvent vs. solvent alone, 100° C., 5 to 10 min): 393% |
| Clc1cccc(C(Cl)(Cl)Cl)n1.Clc1cccc(C(Cl)(Cl)Cl)n1.O=C(O)CC(O)C(=O)O [malic] | 5 | 5 | 1 | 4 | 5 | 5 | 5 | 2 | 3 | 3 | 2 | 2 |  |
| O=C(O)C(O)C(O)C(=O)O (centres unmarked) [tartaric] | 5 | 5 | 1 | 2 | 5 | 5 | 5 | 2 | 2 | 2 | 1 | 2 |  |
| O=C(O)CCC(=O)O [succinic] | 5 | 5 | 1 | 4 | 5 | 5 | 5 | 3 | 3 | 2 | 2 | 3 |  |
| CC(O)(P(=O)(O)O)P(=O)(O)O.Clc1cccc(C(Cl)(Cl)Cl)n1.Clc1cccc(C(Cl)(Cl)Cl)n1.Clc1cccc(C(Cl)(Cl)Cl)n1.Clc1cccc(C(Cl)(Cl)Cl)n1 [etidronic] | 5 | 4 | 1 | 4 | 5 | 4 | 5 | 1 | 2 | 2 | 1 | 1 |  |
| Clc1cccc(C(Cl)(Cl)Cl)n1.Clc1cccc(C(Cl)(Cl)Cl)n1.O=C(O)c1cccc(C(=O)O)c1 [isophthalic] | 3 | 3 | 1 | 2 | 3 | 3 | 3 | 2 | 3 | 3 | 1 | 4 |  |
